SMILES strings stand for the structures.

In one test the target is AuroraB (h) (Homo sapiens, UniProt Q96GD4). The test can be described thus: Aurora-B human kinase inhibition, SPA. Particulars: read-out: AuroraB pIC50 (converted). Format: biochemical. Put shortly: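 AuroraB (0.5 μg/ml) phosphorylates 3 μM biotin-peptide using 0.5 μM ATP spiked with 33P-ATP in Hepes pH 7.5 with 3 mM MgCl2 and MnCl2, for 60 min at room temperature. EDTA stop solution carries streptavidin scintillant beads, and the captured radiolabel is imaged.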
Chain of AuroraB (h) (Q96GD4 whole entry): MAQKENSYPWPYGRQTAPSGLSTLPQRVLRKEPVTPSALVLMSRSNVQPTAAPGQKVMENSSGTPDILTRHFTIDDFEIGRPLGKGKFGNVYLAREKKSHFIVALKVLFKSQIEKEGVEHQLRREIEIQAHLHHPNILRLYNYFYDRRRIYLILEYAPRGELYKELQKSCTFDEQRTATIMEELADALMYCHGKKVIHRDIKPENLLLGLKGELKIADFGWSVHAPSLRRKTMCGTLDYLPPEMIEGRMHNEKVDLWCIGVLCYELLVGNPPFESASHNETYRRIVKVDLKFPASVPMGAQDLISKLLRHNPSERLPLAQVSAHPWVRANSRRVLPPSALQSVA

Another test has as its target PLK2 (h) (Homo sapiens, UniProt Q9NYY3). The test can be described thus: PLK2 human kinase inhibition, SPA. Particulars: read-out: PLK2 pIC50 (converted). Format: biochemical. Put shortly: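 33P incorporation into a biotinylated peptide (2 μM) was captured on streptavidin PVT beads and imaged on Leadseeker. Enzyme at 30 μg/ml, ATP 0.1 μM with 2 nM [γ-33P]ATP, Hepes pH 8.0 with MnCl2 and DTT. Incubation was 20 min at room temperature.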

The next test has as its target PLK3 (h) (Homo sapiens, UniProt Q9H4B4). Kind of test: PLK3 human kinase inhibition, SPA. It counts as biochemical. Particulars: read-out: PLK3 pIC50 (converted). The procedure, abridged:
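Radiometric scintillation proximity format at pH 8.0 (Hepes, MnCl2, DTT). The 2 μM biotin-peptide substrate is phosphorylated by PLK3 (h) (30 μg/ml) using 0.1 μM ATP traced with 33P, for 20 min at room temperature. EDTA stop; phosphopeptide captured on streptavidin beads and imaged.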

For another test, the system named is U87-MG. Kind of test: Cellular proliferation assay (Alamar blue), U87-MG. Particulars: Homo sapiens, U-87 MG; 10% FCS; 72 hours with compound; Alamar blue 6 h; read-out: U87-MG (cellular proliferation assay, Table 4) (converted). It counts as cell-based. The procedure, abridged:
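After a 24 h compound-free attachment period, cells in 10% FCS medium are treated for 72 h at 37° C. Resazurin conversion is then quantified by fluorescence, with dye incubation lasting 4 h for HCT-116, 6 h for U87-MG and 24 h for A2780 or MDA-MB-231.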
On the technique in general: The colour change of resazurin is a common sign of viable cells or microbes.

Chain of PLK3 (h) (Q9H4B4 whole entry): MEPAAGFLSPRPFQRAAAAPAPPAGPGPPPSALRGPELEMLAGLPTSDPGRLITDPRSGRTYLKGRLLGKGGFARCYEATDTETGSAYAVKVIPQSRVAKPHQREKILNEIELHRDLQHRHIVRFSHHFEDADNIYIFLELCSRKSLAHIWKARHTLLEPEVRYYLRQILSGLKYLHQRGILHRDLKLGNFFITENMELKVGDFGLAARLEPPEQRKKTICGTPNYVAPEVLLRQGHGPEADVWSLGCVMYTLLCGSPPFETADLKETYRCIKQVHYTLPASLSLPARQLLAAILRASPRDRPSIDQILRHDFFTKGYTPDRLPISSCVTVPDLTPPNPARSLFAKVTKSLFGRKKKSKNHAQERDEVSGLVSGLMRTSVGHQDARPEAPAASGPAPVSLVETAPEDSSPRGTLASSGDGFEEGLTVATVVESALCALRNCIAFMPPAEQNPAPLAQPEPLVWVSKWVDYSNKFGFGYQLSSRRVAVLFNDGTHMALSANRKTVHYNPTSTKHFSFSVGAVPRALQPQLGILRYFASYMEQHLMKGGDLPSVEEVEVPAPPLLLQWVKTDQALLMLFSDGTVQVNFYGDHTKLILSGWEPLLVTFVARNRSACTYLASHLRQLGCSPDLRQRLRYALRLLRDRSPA
Chain of PLK2 (h) (Q9NYY3 whole entry): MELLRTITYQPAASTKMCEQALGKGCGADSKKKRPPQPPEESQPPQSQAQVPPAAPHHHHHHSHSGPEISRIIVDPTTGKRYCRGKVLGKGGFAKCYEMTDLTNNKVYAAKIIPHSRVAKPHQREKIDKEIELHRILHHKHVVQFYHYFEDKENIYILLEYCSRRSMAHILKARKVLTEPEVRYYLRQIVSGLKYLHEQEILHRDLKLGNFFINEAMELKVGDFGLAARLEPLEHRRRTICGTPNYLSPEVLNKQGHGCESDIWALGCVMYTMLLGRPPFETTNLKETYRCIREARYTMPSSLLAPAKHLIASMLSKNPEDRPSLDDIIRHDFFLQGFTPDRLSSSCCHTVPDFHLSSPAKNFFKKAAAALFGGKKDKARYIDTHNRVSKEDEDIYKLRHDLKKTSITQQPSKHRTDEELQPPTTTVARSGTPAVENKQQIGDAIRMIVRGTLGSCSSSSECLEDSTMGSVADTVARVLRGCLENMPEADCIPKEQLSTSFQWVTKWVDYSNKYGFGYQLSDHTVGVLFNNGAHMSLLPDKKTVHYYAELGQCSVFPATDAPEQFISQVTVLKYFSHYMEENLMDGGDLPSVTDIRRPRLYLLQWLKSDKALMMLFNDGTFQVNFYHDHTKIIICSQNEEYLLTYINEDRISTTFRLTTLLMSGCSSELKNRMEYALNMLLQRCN

Consider `O=C1NCc2ccc(cc2)-c2ccnc(n2)Nc2ccc(N3CCOCC3)c(c2)CN2CCC[C@@H]12` [Compound 49], for which the IC50 is greater than 10 µM at AuroraB (h), greater than 10 µM on PLK2 (h), greater than 10 µM on PLK3 (h) and 1.74 µM with U87-MG.
`CN1CCNC(=O)[C@@H]2CCCN2Cc2cc(cc(N3CCOCC3)c2)Nc2nccc(n2)-c2ccc(cc2)C1` [Compound 154]: the IC50 on AuroraB (h) is greater than 10 µM; at PLK2 (h) it was greater than 3.02 µM; at PLK3 (h), greater than 10 µM; in the test on U87-MG, greater than 10 µM.
On to `O=C1NCCOc2cccc(c2)-c2ccnc(n2)Nc2ccc(N3CCOCC3)c(c2)CN2CCC1CC2` [Compound 94], for which the IC50 on AuroraB (h), on PLK2 (h), at PLK3 (h) and with U87-MG was greater than 10 µM in each case.
As for `CN1CCC(NC(=O)c2cc3cc(c2)Nc2nccc(n2)-c2cccc(c2)CNC(=O)[C@@H]2CCCN2C3)CC1` [Compound 38], the IC50 at AuroraB (h) is greater than 10 µM; at PLK2 (h), greater than 10 µM; at PLK3 (h), greater than 3.02 µM; in the test on U87-MG it was 1 µM.
`COc1cc2cc(c1)Nc1nccc(n1)-c1ccc(cc1)CN(C)CCNC(=O)CN1CCN(CC1)C2` [Compound 132]: the IC50 is greater than 10 µM at AuroraB (h), greater than 3.02 µM at PLK2 (h), greater than 10 µM at PLK3 (h) and 8.71 µM with U87-MG.
As to `COc1cc2cc(c1)Nc1nccc(n1)-c1ccc(OC)c(c1)CN(C)CCCNC(=O)CN1CCN(CC1)C2` [Compound 140], the IC50 on AuroraB (h) was greater than 10 µM; at PLK2 (h), greater than 10 µM; on PLK3 (h), greater than 10 µM; with U87-MG, 4.07 µM.
On to `C[C@@H]1NCc2ccc(cc2)Nc2nccc(n2)-c2cccc(c2)CNC1=O` [Compound 190], for which the IC50 at AuroraB (h), at PLK2 (h), at PLK3 (h) and in the test with U87-MG was greater than 10 µM throughout.
`COc1ccc2cc1CN(C)CCNC(=O)C1CCN(CC1)Cc1cc(NCCc3ccccc3)cc(c1)Nc1nccc-2n1` [Compound 74]: the IC50 on AuroraB (h) was greater than 10 µM; on PLK2 (h) it was greater than 10 µM; at PLK3 (h), greater than 10 µM; in the test on U87-MG, 3.98 µM.
Consider `CN(C)C(=O)c1cc2cc(c1)Nc1nccc(n1)-c1cccc(c1)CNC(=O)[C@@H]1CCCN1C2` [Compound 35], for which the IC50 on AuroraB (h) is greater than 10 µM; at PLK2 (h) it was greater than 10 µM; on PLK3 (h), greater than 10 µM; in the test with U87-MG, 1.45 µM.
For `COc1ccc2cc1CN(C)CCNC(=O)CN1CCN(CC1)Cc1cc(NCCc3ccccc3)cc(c1)Nc1nccc-2n1` [Compound 138], the IC50 on AuroraB (h) was greater than 10 µM; at PLK2 (h), greater than 3.02 µM; at PLK3 (h), greater than 10 µM; with U87-MG, 3.24 µM.
Turning to `O=C1CN2CCN(CC2)Cc2ccc(cc2)Nc2nccc(n2)-c2cccc(c2)CN1` [Compound 193], the IC50 at AuroraB (h), on PLK2 (h), at PLK3 (h) and in the test with U87-MG was greater than 10 µM in each case.
Consider `O=C1CN2CCN(CC2)Cc2cc(ccc2N2CCOCC2)Nc2nccc(n2)-c2cccc(c2)CN1` [Compound 20], for which the IC50 on AuroraB (h), at PLK2 (h), at PLK3 (h) and in the test with U87-MG was greater than 10 µM each time.
With `COc1cc2cc(c1OC)CN1CCC[C@H]1C(=O)NCc1cccc(c1)-c1ccnc(n1)N2` [Compound 23], the IC50 on AuroraB (h), on PLK2 (h), on PLK3 (h) and in the test on U87-MG was greater than 10 µM throughout.
Turning to `O=C1CN2CCN(CC2)Cc2ccc(Cl)c(c2)Nc2nccc(n2)-c2cccc(c2)CN1` [Compound 195], the IC50 at AuroraB (h), at PLK2 (h), at PLK3 (h) and with U87-MG was greater than 10 µM in each case.
Turning to `COc1ccc2cc1CN(C)CCNC(=O)[C@@H]1CCCN1Cc1cc(C#N)cc(c1)Nc1nccc-2n1` [Compound 181], the IC50 was greater than 10 µM at AuroraB (h), greater than 10 µM at PLK2 (h), greater than 10 µM at PLK3 (h) and 9.12 µM with U87-MG.
On to `O=C1NCc2cccc(c2)-c2ccnc(n2)Nc2cc(ccc2Cl)CN[C@H]1Cc1ccccc1` [Compound 189], for which the IC50 at AuroraB (h), on PLK2 (h), on PLK3 (h) and in the test with U87-MG was greater than 10 µM each time.
`CN(C)CCNC(=O)c1cc2cc(c1)Nc1nccc(n1)-c1cccc(c1)CNC(=O)[C@@H]1CCCN1C2` [Compound 39]: the IC50 is greater than 10 µM on AuroraB (h), greater than 10 µM on PLK2 (h), greater than 10 µM on PLK3 (h) and 1.07 µM with U87-MG.
Take `O=C1NCc2cccc(c2)-c2ccnc(n2)Nc2ccc(cc2)CN2CCC[C@@H]12` [Compound 54]: the IC50 at AuroraB (h), on PLK2 (h), on PLK3 (h) and with U87-MG was greater than 10 µM throughout.
Consider `COc1cc2cc(c1)Nc1nccc(n1)-c1ccc(OC)c(c1)CN(C)CCCNC(=O)[C@@H]1CCCN1C2` [Compound 171], for which the IC50 at AuroraB (h) was greater than 10 µM; on PLK2 (h), greater than 10 µM; at PLK3 (h), greater than 10 µM; in the test on U87-MG it was 6.17 µM.
Take `CN1CCN(C)c2ccc(cn2)-c2ccnc(n2)Nc2cc(c3c(c2)OCO3)CN2CCC[C@H]2C1=O` [Compound 168]: the IC50 at AuroraB (h) was 2.57 µM; at PLK2 (h), greater than 10 µM; at PLK3 (h), greater than 10 µM; with U87-MG, 6.76 µM.
Consider `O=C1CN2CCN(CC2)Cc2cccc(c2)Nc2nccc(n2)-c2cccc(c2)CN1` [Compound 196], for which the IC50 on AuroraB (h), on PLK2 (h), on PLK3 (h) and in the test on U87-MG was greater than 10 µM throughout.
With `COc1cc2cc(c1)Nc1nccc(n1)-c1ccc(cc1)CN(C)CCNC(=O)C1CCN(CC1)C2` [Compound 62], the IC50 on AuroraB (h) is greater than 10 µM; at PLK2 (h) it was greater than 10 µM; on PLK3 (h) it was 9.77 µM; in the test with U87-MG it was 6.92 µM.
Consider `O=C1NCc2cccc(c2)-c2ccnc(n2)Nc2ccc(N3CCOCC3)c(c2)CN[C@H]1Cc1ccccc1` [Compound 18], for which the IC50 on AuroraB (h) was greater than 10 µM; at PLK2 (h), greater than 10 µM; on PLK3 (h), greater than 10 µM; in the test with U87-MG, 6.76 µM.
For the compound `O=C1NCc2cc(ccc2N2CCOCC2)Nc2nccc(n2)-c2cccc(c2)CN2CCC[C@@H]12` [Compound 15], the IC50 was 2.95 µM on AuroraB (h), greater than 10 µM at PLK2 (h), greater than 10 µM on PLK3 (h) and 7.94 µM in the test on U87-MG.
Consider `COc1cc2cc(c1)Nc1nccc(n1)-c1ccc(cc1)CN(C)CCNC(=O)[C@@H]1CCCN1C2` [Compound 158], for which the IC50 is greater than 10 µM at AuroraB (h), greater than 3.02 µM at PLK2 (h), 7.08 µM at PLK3 (h) and greater than 10 µM with U87-MG.
As to `O=C1NCc2cccc(c2)-c2ccnc(n2)Nc2ccc(cc2)CN2C[C@H](O)C[C@@H]12` [Compound 55], the IC50 at AuroraB (h), at PLK2 (h), on PLK3 (h) and in the test on U87-MG was greater than 10 µM throughout.
For `O=C1CN2CCN(CC2)Cc2cc(ccc2N2CCOCC2)Nc2nccc(n2)-c2cccc(c2)OCCN1` [Compound 102], the IC50 at AuroraB (h) was greater than 10 µM; on PLK2 (h) it was greater than 10 µM; on PLK3 (h) it was greater than 10 µM; in the test with U87-MG, 3.09 µM.
For `O=C(NC1CCOCC1)c1cc2cc(c1)Nc1nccc(n1)-c1cccc(c1)CNC(=O)[C@@H]1CCCN1C2` [Compound 37], the IC50 at AuroraB (h) is 4.9 µM; on PLK2 (h), greater than 10 µM; at PLK3 (h), greater than 10 µM; in the test on U87-MG it was greater than 10 µM.
As for `CN1CCN(C(=O)c2ccc3cc2CN2CCC[C@H]2C(=O)NCc2cccc(c2)-c2ccnc(n2)N3)CC1` [Compound 25], the IC50 at AuroraB (h), on PLK2 (h), at PLK3 (h) and with U87-MG was greater than 10 µM each time.
Regarding `COc1ccc2cc1CN(C)CCNC(=O)[C@H](CO)NCc1cc(cc(N3CCOCC3)c1)Nc1nccc-2n1` [Compound 105], the IC50 was 4.79 µM at AuroraB (h), greater than 3.02 µM on PLK2 (h), greater than 10 µM at PLK3 (h) and greater than 10 µM in the test on U87-MG.
Consider `C[C@@H]1NCc2cccc(c2)Nc2nccc(n2)-c2cccc(c2)CNC1=O` [Compound 184], for which the IC50 on AuroraB (h), on PLK2 (h), on PLK3 (h) and with U87-MG was greater than 10 µM in each case.
Take `C[C@@H]1NCc2cccc(c2)-c2ccnc(n2)Nc2ccc(N3CCOCC3)c(c2)CNC1=O` [Compound 101]: the IC50 on AuroraB (h) is greater than 10 µM; on PLK2 (h) it was greater than 10 µM; on PLK3 (h), greater than 10 µM; in the test with U87-MG, 5.01 µM.
In the case of `O=C1NCc2cccc(c2)-c2ccnc(n2)Nc2ccc(N3CCOCC3)c(c2)CN2CCC1CC2` [Compound 95], the IC50 at AuroraB (h), on PLK2 (h), at PLK3 (h) and in the test on U87-MG was greater than 10 µM throughout.

Values taken from patent US8609836B2, “4-aryl-2-anilino-pyrimidines” (Janssen Pharmaceutica NV, priority 2008, dated 2013).
